“Also recorded” adds a separate entry of the source. Like-named read-outs stand apart in the source and are kept apart here.
Columns and labels:
[1] = test system: Nav1.2, Nav1.3, Nav1.4, Nav1.5, Nav1.7; settings: reference not given; cited from earlier work
[2] = test system: motor coordination of rats (latency to fall off the rotarod); assay type: in vivo, rat (Sprague-Dawley); settings: vs baseline, n = 6
Protocol: Motor activity was assessed using a rotarod apparatus for rats (Coulbourn Instruments, Lehigh Valley, PA, USA). The rotarod might be set at any speed from 0 to 50 rpm. For motor coordination assessment, rats were trained for 2 days by walking them each day on an accelerating rotarod from 4 to 40 rpm for 10 min. […] Motor performance was considered as the latency to fall off the rotarod apparatus determined from the mean time in three trials for each rat at each time.

[3] = test system: formalin-induced pain behaviors in rats; assay: formalin-induced inflammatory rat model; assay type: in vivo, rat (Sprague-Dawley); settings: for pain score over the 40 min period: mean ± SEM, saline 569.2 ± 43.5 s
Protocol: Acute and chronic nociceptive responses were measured using the rat paw formalin test as descried by Dubission and modified by Malmberg. Adult Sprague-Dawley rats (male, weighing 180–220 g) were used for this behavioral test. During the test, each rat was placed into open polyvinyl cages (30 cm × 40 cm × 30 cm) and at least 30 min before administration of the toxin. All agents were administered 30 min prior to s.c. intraplantar formalin injection. A volume of 50 μL formalin (5%) solution was used as previously described and injected into the plantar surface of one hind paw. Lifting, favoring, licking, shaking and flinching of the injected paw were recorded as nociceptive responses. The total time of the nociceptive response was measured every 5 min and […] (mean ± SEM). Recording of nociceptive behavior commenced immediately after formalin injection and was continued for 40 min.

[4] = test system: neuronal TTX-S VGSCs in rat dorsal root ganglion (DRG) cells; settings: cited from earlier work
Excerpt: μ-TRTX-Hhn1b (HNTX-IV) is a 35-residue peptide from tarantula Ornithoctonus hainana (Haplopelma hainanum) venom. The amino acid sequence is […]. The peptide amidated at its C-terminal has a high proportion of basic residues and is crosslinked by three disulfide bonds. […] Therefore, the rotarod latency test was used to access the motor side effects of μ-TRTX-Hhn1b in rats.

mice and rats = assay: observation of death and abnormal behaviors in the pain tests; assay type: in vivo
human Nav1.7 = target: T1, human Nav1.7 (Homo sapiens, UniProt Q15858); assay: whole-cell patch clamp, human Nav1.7 transiently expressed in HEK 293 cells; assay type: cell-based
T1 construct: expressed in transfected cells; host or cells: HEK293 cells, transient transfection with Lipofectamine 2000
T1 sequence (Q15858 other isoform, or with tags, fused parts or gaps): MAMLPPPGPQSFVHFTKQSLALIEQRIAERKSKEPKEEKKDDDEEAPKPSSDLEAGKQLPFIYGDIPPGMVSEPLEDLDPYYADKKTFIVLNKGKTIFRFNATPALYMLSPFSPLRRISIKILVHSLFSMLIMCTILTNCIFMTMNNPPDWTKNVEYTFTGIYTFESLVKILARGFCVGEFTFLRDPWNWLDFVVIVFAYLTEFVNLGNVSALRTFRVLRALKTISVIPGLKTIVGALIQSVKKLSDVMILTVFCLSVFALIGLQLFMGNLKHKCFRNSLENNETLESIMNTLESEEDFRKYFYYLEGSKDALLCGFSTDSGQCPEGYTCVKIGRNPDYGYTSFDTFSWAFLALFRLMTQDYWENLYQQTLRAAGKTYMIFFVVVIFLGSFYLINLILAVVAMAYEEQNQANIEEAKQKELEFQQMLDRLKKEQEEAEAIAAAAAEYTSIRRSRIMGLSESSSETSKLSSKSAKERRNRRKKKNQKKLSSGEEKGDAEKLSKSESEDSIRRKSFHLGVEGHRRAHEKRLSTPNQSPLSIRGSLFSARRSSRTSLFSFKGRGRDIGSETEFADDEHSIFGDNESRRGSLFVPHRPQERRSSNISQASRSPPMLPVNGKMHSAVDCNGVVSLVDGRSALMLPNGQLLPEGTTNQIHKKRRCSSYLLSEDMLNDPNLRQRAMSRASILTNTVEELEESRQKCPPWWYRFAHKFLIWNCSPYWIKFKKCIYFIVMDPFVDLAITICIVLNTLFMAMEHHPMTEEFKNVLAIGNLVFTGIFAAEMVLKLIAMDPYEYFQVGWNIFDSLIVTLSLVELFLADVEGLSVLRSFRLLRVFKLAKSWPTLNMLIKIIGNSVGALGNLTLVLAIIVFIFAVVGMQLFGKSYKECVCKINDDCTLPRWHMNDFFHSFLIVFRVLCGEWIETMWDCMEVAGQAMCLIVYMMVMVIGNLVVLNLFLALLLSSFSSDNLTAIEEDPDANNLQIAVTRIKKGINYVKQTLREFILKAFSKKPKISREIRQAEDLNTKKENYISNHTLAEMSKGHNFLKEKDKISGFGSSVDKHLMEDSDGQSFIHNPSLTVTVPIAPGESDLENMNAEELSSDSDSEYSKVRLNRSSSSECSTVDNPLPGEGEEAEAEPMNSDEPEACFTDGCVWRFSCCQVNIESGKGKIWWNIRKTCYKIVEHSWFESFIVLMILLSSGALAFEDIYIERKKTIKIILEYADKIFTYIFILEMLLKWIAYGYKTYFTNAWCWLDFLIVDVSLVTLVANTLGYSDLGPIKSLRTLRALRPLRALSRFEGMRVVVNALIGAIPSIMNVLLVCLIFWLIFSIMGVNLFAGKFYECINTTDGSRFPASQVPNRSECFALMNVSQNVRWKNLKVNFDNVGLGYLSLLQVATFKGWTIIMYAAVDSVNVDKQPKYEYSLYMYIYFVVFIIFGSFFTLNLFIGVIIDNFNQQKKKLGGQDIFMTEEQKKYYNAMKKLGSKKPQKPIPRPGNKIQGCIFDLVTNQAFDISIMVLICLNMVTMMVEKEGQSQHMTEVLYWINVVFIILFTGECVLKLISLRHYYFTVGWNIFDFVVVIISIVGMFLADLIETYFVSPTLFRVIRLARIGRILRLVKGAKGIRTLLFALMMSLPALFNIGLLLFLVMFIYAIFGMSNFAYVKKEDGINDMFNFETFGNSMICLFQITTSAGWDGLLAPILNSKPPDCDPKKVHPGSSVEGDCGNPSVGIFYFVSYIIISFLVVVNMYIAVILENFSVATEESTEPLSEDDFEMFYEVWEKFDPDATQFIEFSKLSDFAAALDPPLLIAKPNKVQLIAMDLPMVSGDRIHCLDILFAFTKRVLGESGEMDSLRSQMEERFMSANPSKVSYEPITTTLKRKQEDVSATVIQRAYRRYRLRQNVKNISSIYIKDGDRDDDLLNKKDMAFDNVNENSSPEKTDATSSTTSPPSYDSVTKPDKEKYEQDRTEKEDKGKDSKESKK
T1 sequence (Q07699 19-218, further chain): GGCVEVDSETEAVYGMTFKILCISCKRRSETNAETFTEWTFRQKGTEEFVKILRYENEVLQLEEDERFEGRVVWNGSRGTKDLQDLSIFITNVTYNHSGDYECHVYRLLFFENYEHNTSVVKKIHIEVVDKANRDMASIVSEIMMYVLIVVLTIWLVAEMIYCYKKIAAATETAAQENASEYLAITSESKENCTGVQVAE
Excerpt: Figure 2 Inhibitory effect of synthetic μ-TRTX-Hhn1b on Nav1.7 expressed on HEK 293 cells. […] (B) The inhibition of μ-TRTX-Hhn1b on Nav1.7 was dose-dependent. […] Data are plotted as a fraction of the maximum conductance. The voltage-dependence of steady-state inactivation was estimated using a standard double-pulse protocol, in which a 20-ms depolarizing test potential of 0 mV followed a 500-ms prepulse at potentials that ranged from −130 to −10 mV with a 10-mV increment. Cells were held at −100 mV.
A human Nav1.7 channel plasmid (accession No. NM_002977) and a plasmid for green ﬂuorescent protein were transiently transfected into human embryonic kidney 293 (HEK293) cells using Lipofectamine 2000 (Invitrogen, Carlsbad, CA, USA) according to the manufacturer’s instructions. HEK293 cells were grown under standard tissue culture conditions (5% CO2; 37 °C) in DMEM supplemented with 10% FBS. The β1 subunit was cotransfected with the Nav1.7 channel to increase the current density. Cells with green ﬂuorescence were selected for whole-cell patch-clamp recording at 36–72 h after transfection. Patch-clamp experiments were performed at room temperature. Suction pipettes (2.0–3.0 MΩ) were made from borosilicate glass capillary tubes using a two-step vertical micropipette puller. The pipette solution contained (in mM): CsCl 145, MgCl2∙6H2O 4, HEPES 10, EGTA 10, glucose 10, ATP 2 (pH 7.2). The external solution contained (in mM): NaCl 145, KCl 2.5, CaCl2 1.5, MgCl2.6H2O 1.2, HEPES 10, glucose 10 (pH 7.4). Experimental data were collected and analyzed using the program Pulse/Pulsefit 8.0 (HEKA Electronics, Pfalz, Germany). Macroscopic sodium currents were filtered at 5 kHz and digitized at 20 kHz with an EPC-9 patch-clamp amplifier (HEKA Electronics, Pfalz, Germany). Series resistance was kept near 5 MΩ and compensated to 65%–70%; linear capacitative and leakage currents were digitally subtracted using the P/4 protocol.

[5] = test system: acetic acid-induced abdominal constriction responses in mice; assay type: in vivo, mouse (ICR); settings: 15 min before acetic acid, 30 min count, n = 6
Protocol: The abdominal constriction responses induced by intraperitoneal (i.p.) injection of 0.2 mL acetic acid (0.8%), including contraction of the abdominal muscle and stretching of the hind limbs, were performed according to procedures described by Collier et al.. Mice (male, weighing 20–25 g) were pre-treated with the test samples dissolved in saline by intraperitoneal (i.p.) injection for 15 min prior to acetic acid injection. Control animals received the same volume of vehicle (saline: 0.9% sodium chloride solution). After the challenge, mice were individually placed into open polyvinyl cages (30 cm × 40 cm × 30 cm), and the abdominal constriction responses were counted cumulatively during 30 min, which was represented as the sum of constriction (S). The inhibition of pain responses was calculated by the equation as follows: inhibition of pain responses % = (Ssaline − Sdrug)/Ssaline per animal. One hundred percent corresponds to complete reversal of pain, equivalent to the non-injury value, and 0% corresponds to the value from the saline group.

CC[C@H](C)[C@H](NC(=O)[C@H](CCC(=O)O)NC(=O)[C@H](Cc1ccc(O)cc1)NC(=O)[C@H](CCCCN)NC(=O)[C@@H]1CSSC[C@@H]2NC(=O)[C@H](CCC(N)=O)NC(=O)[C@H](CC(=O)O)NC(=O)[C@H](CC(N)=O)NC(=O)[C@H](CO)NC(=O)[C@@H]3CCCN3C(=O)[C@H](CC(N)=O)NC(=O)[C@@H]3CSSC[C@H](NC(=O)[C@H](C(C)C)NC(=O)[C@H](CC(C)C)NC(=O)[C@H](CC(N)=O)NC(=O)[C@H](CO)NC(=O)[C@H](CO)NC(=O)[C@H](CCCCN)NC(=O)[C@H](CSSC[C@H](NC(=O)[C@@H](N)CCC(=O)O)C(=O)N[C@@H](CC(C)C)C(=O)NCC(=O)N[C@@H](Cc4ccccc4)C(=O)NCC(=O)N[C@@H](CCCCN)C(=O)NCC(=O)N3)NC2=O)C(=O)N[C@@H](CO)C(=O)N[C@@H](CCCNC(=N)N)C(=O)N[C@@H](CCCCN)C(=O)N[C@@H](Cc2c[nH]cn2)C(=O)N[C@@H](CCCNC(=N)N)C(=O)N[C@@H](Cc2c[nH]c3ccccc23)C(=O)N1)C(N)=O [μ-TRTX-Hhn1b]
sensitivity of Nav1.7 relative to other channels [1]: Nav1.7 is the most sensitive to μ-TRTX-Hhn1b | latency to fall off the rotarod ([2]; 0.1 mg/kg, 30 min and 90 min after administration): no significant change in latencies to fall off the rotarod | latency to fall off the rotarod ([2]; 0.2 mg/kg, 30 min after administration, p < 0.05): significantly (p < 0.05) reduced latencies | latency to fall off the rotarod ([2]; 0.2 mg/kg, 90 min after administration): not at 90 min | pain score over the 40 min period ([3]; 50 µg/kg i.p., n = 6, p < 0.05): 458.5 ± 59.9 s | pain score over the 40 min period ([3]; 100 µg/kg i.p., n = 6, p < 0.01): 346.0 ± 46.2 s | pain score over the 40 min period ([3]; 200 µg/kg i.p., n = 6, p < 0.01): 199.8 ± 32.6 s | antinociceptive activity compared with morphine ([3]; 200 µg/kg peptide vs 100 µg/kg morphine, i.p.): antinociceptive activity similar to 100 µg/kg of morphine | effect on pain responses, early phase ([3]; early phase (0–5 min), 50, 100 or 200 µg/kg i.p.): not in the early phases; also recorded: little effect | suppression of pain behaviors, late phase ([3]; late phase (15–30 min), 50, 100 or 200 µg/kg i.p.): dose-dependent suppression of pain behaviors; also recorded: significantly inhibited | inhibition of other TTX-S VGSCs ([4]; at a high concentration, reference not given): also inhibits other TTX-S VGSCs in rat DRG cells at a high concentration | inhibition of neuronal TTX-S VGSCs [4]: specifically inhibits the neuronal TTX-S VGSCs in rat dorsal root ganglion (DRG) cells | side effects (mice and rats; 0.2 mg/kg): inactivity and paralysis | abnormal behaviors (mice and rats; highest dose, some mice and rats): inactivity and paralysis, were observed in some mice and rats | animal death (mice and rats; in the three pain tests / all tests): no animal death was observed; also recorded: no animal death occurred in all tests | effect on activation and inactivation of Nav1.7 (human Nav1.7; 50 nM synthetic peptide): did not significantly alter the activation (C) and steady-state inactivation (D) of Nav1.7; also recorded: inhibited the peak current of Nav1.7 without significant alteration of the activation and inactivation kinetics of Nav1.7 | half-activation voltage of Nav1.7 (human Nav1.7; 50 nM synthetic peptide, Boltzmann fit): −23.0 ± 0.4 mV | half-inactivation voltage of Nav1.7 (human Nav1.7; 50 nM synthetic peptide, steady-state inactivation, Boltzmann fit): −47.1 ± 0.3 mV | τon, time-dependent inhibition of Nav1.7 (human Nav1.7; 100 nM synthetic peptide, HEK 293 cells): 20.5 ± 0.3 s | inhibitory effect of synthetic peptide compared with native toxin (human Nav1.7; human Nav1.7 in HEK 293 cells): same inhibitory effect on human Nav1.7 current transiently expressed in HEK 293 cells as the native toxin | IC50 (human Nav1.7; synthetic peptide, human Nav1.7 + β1 subunit in HEK 293 cells, whole-cell patch clamp, room temperature, 50-ms depolarization from −80 mV to −10 mV, mean ± S.E., five to eight cells, read-out: IC50, inhibition of Nav1.7 current): ~0.021 µM | inhibition of pain responses (abdominal constriction) ([5]; 25.0 μg/kg i.p., p < 0.05): 25.2% | inhibition of pain responses (abdominal constriction) ([5]; 100 μg/kg i.p., p < 0.01): 55.6%

Source: article PMC4147587, “Synthesis and Analgesic Effects of μ-TRTX-Hhn1b on Models of Inflammatory and Neuropathic Pain” (Toxins, 2014)
